Test results published in ChEMBL document CHEMBL4673405, “Novel Linker Variants of Antileishmanial/Antitubercular 7-Substituted 2-Nitroimidazooxazines Offer Enhanced Solubility” (ACS Med Chem Lett, 2021).
Values after ≈ are worked out from the molar mass of the structure shown.

Assays:
[1] = Solubility of the compound in 0.1 M HCl at pH 1 sonicated for 15 mins by HPLC analysis; assay type: physicochemical
MRC5 = assay: Cytotoxicity against human MRC5 cells assessed as reduction in cell viability measured after 72 hrs by resazurin assay; assay type: ADME, cell-based; details: MRC5, 72 h
Leishmania donovani [2] = assay: (§1) Antileishmanial activity against Leishmania donovani MHOM/ET/67/HU3 amastigotes infected in BALB/c mouse model of visceral leishmaniasis assessed as reduction in parasite burden in liver at 50 mg/kg, po administered once daily for 5 consecutive days starting after 7 days post-infection by microscopic analysis relative to control; assay type: functional; design: scale not given: the % may be the effect or the level left; details: time 5 day
Leishmania infantum = assay: Antileishmanial activity against Leishmania infantum MHOM/MA(BE)/67 amastigotes infected in mouse peritoneal macrophages incubated for 5 days by Giemsa staining based assay; assay type: functional, organism-based; details: MHOM/MA(BE)/67, Peritoneal macrophage, 120 h
[3] = Aqueous solubility of the compound at pH 7 sonicated for 15 mins by HPLC analysis; details: aqueous medium
[4] = AUClast in BALB/c mouse at 1 mg/kg, iv measured up to 24 hrs by LC-MS/MS analysis; details: in vivo
[5] = Initial plasma concentration in BALB/c mouse at 1 mg/kg, iv measured up to 24 hrs by LC-MS/MS analysis
[6] = Half life in BALB/c mouse at 25 mg/kg, po measured up to 24 hrs by LC-MS/MS analysis; assay type: ADME, organism-based; details: in vivo
[7] = Clearance in BALB/c mouse at 1 mg/kg, iv measured up to 24 hrs by LC-MS/MS analysis; details: in vivo
[8] = Half life in BALB/c mouse at 1 mg/kg, iv measured up to 24 hrs by LC-MS/MS analysis; details: in vivo
in vivo [9] = details: BALB/c, mouse, po, 25 mg/kg
in vivo [10] = details: BALB/c, mouse, po, 25 mg/kg; remark: listed apart in the source
in vivo [11] = details: BALB/c, mouse, po, 25 mg/kg; remark: listed apart in the source
Description: AUClast in BALB/c mouse at 25 mg/kg, po measured up to 24 hrs by LC-MS/MS analysis

in vivo [12] = details: BALB/c, mouse, po, 25 mg/kg; remark: listed apart in the source
[13] = Volume of distribution at steady state in BALB/c mouse at 1 mg/kg, iv measured up to 24 hrs by LC-MS/MS analysis; details: in vivo
Leishmania donovani [14] = assay: as §1, with “12.5” for “50”; assay type: functional; design: scale not given: the % may be the effect or the level left; details: time 5 day
Leishmania donovani [15] = assay: as §1, with “25” for “50”; assay type: functional; design: scale not given: the % may be the effect or the level left; details: time 5 day
[16] = Microsomal stability in mouse liver microsomes assessed as parent compound remaining at 1 uM measured up to 60 mins in presence of NADPH by LC-MS/MS analysis
[17] = Microsomal stability in human liver microsomes assessed as parent compound remaining at 1 uM measured up to 60 mins in presence of NADPH by LC-MS/MS analysis
[18] = system: Mycobacterium tuberculosis; assay: Antitubercular activity against Mycobacterium tuberculosis H37Rv assessed as minimum inhibitory concentration required to inhibit 90% of bacterial growth incubated for 7 days under aerobic condition by microplate Alamar blue assay; assay type: functional; details: 168 h, time 7 day
[19] = system: Mycobacterium tuberculosis; assay: Antitubercular activity against Mycobacterium tuberculosis H37Rv assessed as minimum inhibitory concentration required to inhibit 90% of bacterial growth incubated for 10 days under anerobic condition followed by incubation under ambient gaseous condition for 7 days by low oxygen recovery assay; assay type: functional; details: 408 h, time 17 day
Leishmania donovani [20] = assay: as §1, with “6.25” for “50”; assay type: functional; design: scale not given: the % may be the effect or the level left; details: time 5 day

| SMILES | IC50 (MRC5) | IC50 (Leishmania infantum) | solubility at 0.25 h [3] | other results |
| --- | --- | --- | --- | --- |
| CN(CC1(C)CCn2cc([N+](=O)[O-])nc2O1)c1ccc(OC(F)(F)F)cc1 (stereo not drawn) | ≥ 40 µM | 0.27 µM | 1.5 µg/mL (≈ 3.88 µM) | solubility at 0.25 h [1]: 4.6 µg/mL (≈ 11.9 µM); Activity (Leishmania donovani [2]): 58% |
| O=C(Nc1ccc(OC(F)(F)F)cc1)OCC1CCn2cc([N+](=O)[O-])nc2O1 (stereo not drawn) | ≥ 40 µM | 0.36 µM | 4.5 µg/mL (≈ 11.2 µM) | AUC(0-t) at 24 h [4]: 1.17 µg·h/mL; C0 at 24 h [5]: 0.74 µg/mL; half-life [6]: 1.6 h; clearance at 24 h [7]: 0.84 L/h/kg; half-life at 24 h [8]: 1.2 h; Cmax at 24 h (in vivo [9]): 9.6 µg/mL; Tmax at 24 h (in vivo [10]): 1 h; AUC(0-t) at 24 h (in vivo [11]): 35.4 µg·h/mL; bioavailability at 24 h (in vivo [12]): 100%; Vd at 24 h [13]: 1.6 L/kg |
| CC1(COc2ccc(F)cc2)CCn2cc([N+](=O)[O-])nc2O1 (stereo not drawn) | ≥ 40 µM | 0.45 µM | – | – |
| CN(CC1(C)CCn2cc([N+](=O)[O-])nc2O1)c1ccc(Cl)cc1 (stereo not drawn) | ≥ 40 µM | 0.31 µM | – | – |
| CC1(CNc2ccc(F)cc2)CCn2cc([N+](=O)[O-])nc2O1 (stereo not drawn) | ≥ 40 µM | 0.93 µM | – | – |
| C[C@@]1(COC(=O)Nc2ccc(OC(F)(F)F)cc2)CCn2cc([N+](=O)[O-])nc2O1 | ≥ 40 µM | 0.2 µM | 7.9 µg/mL (≈ 19 µM) | Activity (Leishmania donovani [14]): 31%; Activity (Leishmania donovani [15]): 51% |
| CN(CC1(C)CCn2cc([N+](=O)[O-])nc2O1)c1ccc(C(F)(F)F)nc1 (stereo not drawn) | ≥ 40 µM | 2.2 µM | – | – |
| CC1(COC(=O)Nc2ccccc2OC(F)(F)F)CCn2cc([N+](=O)[O-])nc2O1 (stereo not drawn) | ≥ 40 µM | 0.64 µM | – | – |
| CC1(COc2ccc(OC(F)(F)F)cc2)CCn2cc([N+](=O)[O-])nc2O1 (stereo not drawn) | – | – | – | Activity (Leishmania donovani [14]): 100%; Activity (Leishmania donovani [15]): 100% |
| CC1(CNc2ccc(Cl)cc2)CCn2cc([N+](=O)[O-])nc2O1 (stereo not drawn) | ≥ 40 µM | 0.29 µM | – | – |
| CC1(CNC(=O)c2cccc(OC(F)(F)F)c2)CCn2cc([N+](=O)[O-])nc2O1 (stereo not drawn) | ≥ 40 µM | 1.3 µM | 14 µg/mL (≈ 35 µM) | remaining at 1 h, 1 µM [16]: 36%; remaining at 1 h, 1 µM [17]: 58% |
| CC1(CNCc2ccc(OC(F)(F)F)cc2)CCn2cc([N+](=O)[O-])nc2O1 (stereo not drawn) | ≥ 40 µM | 0.13 µM | 124 µg/mL (≈ 321 µM) | solubility at 0.25 h [1]: 33000 µg/mL (≈ 85400 µM) |
| CC1(CNC(=O)OCc2ccc(OC(F)(F)F)cc2)CCn2cc([N+](=O)[O-])nc2O1 (stereo not drawn) | ≥ 40 µM | 0.16 µM | 28 µg/mL (≈ 65.1 µM) | – |
| O=C(NCC1CCn2cc([N+](=O)[O-])nc2O1)c1ccc(OC(F)(F)F)cc1 (stereo not drawn) | ≥ 40 µM | 1.5 µM | – | – |
| CC1(CNS(=O)(=O)c2ccc(OC(F)(F)F)cc2)CCn2cc([N+](=O)[O-])nc2O1 (stereo not drawn) | ≥ 40 µM | 2.2 µM | – | – |
| C[C@]1(COC(=O)Nc2ccc(OC(F)(F)F)cc2)CCn2cc([N+](=O)[O-])nc2O1 | ≥ 40 µM | 0.14 µM | 6.3 µg/mL (≈ 15.1 µM) | MIC90 [18]: 0.085 µM (≈ 0.0354 µg/mL); MIC90 [19]: 1 µM (≈ 0.416 µg/mL); Activity (Leishmania donovani [14]): 40%; Activity (Leishmania donovani [15]): 89% |
| CC1(COCC(=O)Nc2ccc(OC(F)(F)F)cc2)CCn2cc([N+](=O)[O-])nc2O1 (stereo not drawn) | ≥ 40 µM | 0.49 µM | – | – |
| CC1(CNc2ccc(OC(F)(F)F)cc2)CCn2cc([N+](=O)[O-])nc2O1 (stereo not drawn) | ≥ 40 µM | 0.18 µM | 3 µg/mL (≈ 8.06 µM) | Activity (Leishmania donovani [20]): 29%; solubility at 0.25 h [1]: 10 µg/mL (≈ 26.9 µM); Activity (Leishmania donovani [2]): >99% |
